One data set concerns the target T1, Cox-1 (Ovis aries, UniProt P05979).
T1 construct: purchased Cayman, USA
T1 sequence (P05979 25-600): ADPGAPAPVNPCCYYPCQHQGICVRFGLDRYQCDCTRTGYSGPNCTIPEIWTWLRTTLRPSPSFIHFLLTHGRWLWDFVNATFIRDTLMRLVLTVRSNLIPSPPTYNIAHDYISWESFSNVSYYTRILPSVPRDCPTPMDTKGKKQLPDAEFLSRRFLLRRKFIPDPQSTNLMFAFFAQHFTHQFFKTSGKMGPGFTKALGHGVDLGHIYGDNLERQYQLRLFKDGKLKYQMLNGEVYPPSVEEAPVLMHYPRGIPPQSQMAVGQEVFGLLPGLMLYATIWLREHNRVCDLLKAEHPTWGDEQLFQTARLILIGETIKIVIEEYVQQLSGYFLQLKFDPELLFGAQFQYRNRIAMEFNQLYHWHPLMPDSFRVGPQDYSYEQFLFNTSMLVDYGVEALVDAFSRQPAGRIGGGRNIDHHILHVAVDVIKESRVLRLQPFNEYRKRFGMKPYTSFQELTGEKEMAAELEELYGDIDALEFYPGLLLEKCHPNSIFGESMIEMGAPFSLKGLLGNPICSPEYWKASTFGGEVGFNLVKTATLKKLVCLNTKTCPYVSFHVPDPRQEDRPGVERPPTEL
The data set can be described thus: inhibiting activity to COX-1 (TMPD colorimetric, 590 nm). The class given is biochemical. Conditions: tested at 300, 100, 30, 10 μmol/L (positive control 100, 30, 10, 3). As to the method:
2.5.1 The Inhibiting Activity to COX-1/COX-2
(1) In 220 ul of reaction system, mixed buffer (1×), heme, COX-1/COX-2, and the compound to be tested, are sequentially added, and are incubated for 5 minutes at 25° C.;
(2) Adding chromogenic substrate (TMPD) and arachidonic acid;
(3) Carefully shaking the plate for several seconds, then incubating for 15 minutes at 25° C.;
(4) Detecting absorption value at 590 nm.
Fitting data of concentration (μmol/L) and corresponding inhibition rate (%) via Microsoft EXCEL software to get a trendline, so as to obtain the half-effective inhibiting concentration (IC50) of each tested enzyme.

Data set [1] concerns hot plate pain threshold of mice. The data set can be described thus: hot plate pain threshold of mice. The class given is in vivo. To be noted: for pain threshold(s) 0 h: 0 h (base threshold before administration); for pain threshold(s) 0.5 h: 0.5 h after administration; for pain threshold(s) 1 h: 1 h after administration. As to the method: On the basis of preliminary test, 90 healthy Kunming species of Mus musculus albus are selected, female, weight 18˜22 g, […], and each group of 10 mice, said tested groups comprising:
Each group of animals is pasted for 12 h, but drinking ad libitum. Mice are placed on a homoiothermal hot plate (55±0.5[…]), and the time of occurrence of licking foot is recorded as pain threshold. Appropriate mice (whose reaction time of pain is less than 60 seconds) are selected and randomly divided into groups, and pain thresholds are measured twice before administration and the average value is used as base pain threshold. At 0.5 h and 1 hour after intragastric administration of corresponding drugs, the pain threshold of each mouse is measured (if there are no reaction of pain in 60 seconds, then the threshold is considered as 60 second).
Using Microsoft EXCEL software, the average value of pain threshold of each tested group and the average value of control group are performed t-test analysis, and P<0.05 is considered as statistically significant difference.

For data set [2] the following is noted: background statement; cited from earlier work.
A short description of data set [3]: pharmacokinetic study in rats of ig administration. The class given is in vivo.
The test system of data set [4] is hot plate pain threshold of mice. The data set can be described thus: hot plate pain threshold of mice. Conditions: 40 mg/kg ip, 0 h (base threshold before administration). The class given is in vivo.
Setting [5] is: ig 50 mg/kg, individual animals A-F, listed as R-type isomer.

Values joined by “and” are separate entries in the source; they are usually repeats but may differ in a detail not shown here. Identical values can stand only once. Like-named read-outs stand apart in the source and are kept apart here.

A word on the IC50: it is the point on the concentration scale where inhibition reaches its midpoint. `CC(C(=O)O)c1ccc2c(c1)CC(=O)c1ccccc1S2` (racemic) [RS, 10,11-dihydro-alpha-methyl-10-oxo-dibenzo[b,f]tiazem-2-acetic acid, reference compound]: on Cox-1, the IC50 is 153 µM. In data set [1] (40 mg/kg ig), the “pain threshold(s) 0 h” value came out at 12.8 ± 3.7 s, the “pain threshold(s) 0.5 h” value is given as 9.9 ± 2.7 s and the “pain threshold(s) 1 h” value was 10.7 ± 5.7 s. In addition, in data set [1] (80 mg/kg ig), the “pain threshold(s) 0 h” value worked out at 12.7 ± 3.1 s, the “pain threshold(s) 0.5 h” value turned out to be 11.7 ± 5.2 s and the “pain threshold(s) 1 h” value worked out at 9.6 ± 3.5 s. Also, the “abirritation, times more than Indomethacin, Diclofenac Sodium, Ketoprofen, mefenamic acid” value in data set [2] was 3-28 times.
The term Cmax denotes the highest concentration seen after dosing. Broadly, the Tmax is the time at which the peak concentration occurs. `C[C@@H](C(=O)O)c1ccc2c(c1)CC(=O)c1ccccc1S2` [R, R-10,11-dihydro-alpha-methyl-10-oxo-dibenzo[b,f]tiazem-2-acetic acid]: at Cox-1, the IC50 is greater than 300 µM. In data set [1] (40 mg/kg ig), the “pain threshold(s) 0 h” value is 17.6 ± 13.8 s and the “pain threshold(s) 0.5 h” value is recorded as 12.0 ± 7.8 s. Further, in data set [1] (80 mg/kg ig), the “pain threshold(s) 0 h” value was found to be 21.5 ± 15.5 s and the “pain threshold(s) 1 h” value is given as 17.5 ± 12.3 s. Besides, in data set [1] (160 mg/kg ig), the “pain threshold(s) 0 h” value is reported as 22.0 ± 4.9 s, the “pain threshold(s) 0.5 h” value was found to be 24.1 ± 15.1 s and the “pain threshold(s) 1 h” value came to 27.3 ± 11.9 s. Moreover, the “transformation between R-isomer and S-isomer during monitoring of blood drug level” value in data set [3] (ig) was “No transformation between R-isomer and S-isomer is detected”. Further, in data set [3] (setting [5]), the “AUC(0-48)” value is 723.9 µg·h/mL and 239.0 µg·h/mL and 330.6 µg·h/mL and 814.3 µg·h/mL and 324.2 µg·h/mL and 1336.0 µg·h/mL; the “AUG(0-∞)” value is 772.8 mg/L*h and 337.7 mg/L*h and 818.7 mg/L*h and 325.6 mg/L*h and 1374.1 mg/L*h; the CLz/F is 0.1 L/h/kg (3×) and 0.2 L/h/kg (2×) and 0.0 L/h/kg; the Cmax is 260.8 µg/mL and 98.9 µg/mL and 67.8 µg/mL and 223.1 µg/mL and 131.5 µg/mL and 184.2 µg/mL. In data set [3] (setting [5]), the “MRT(0-48)” value is 7.4 h and 2.2 h and 9.1 h and 5.4 h and 5.0 h and 10.3 h; the Tmax is 1.0 h (2×) and 0.5 h (2×) and 0.3 h (2×); the t1/2z is 10.0 h and 2.2 h and 9.8 h and 7.8 h and 4.9 h and 9.6 h. Besides, in data set [3] (ig 50 mg/kg, mean of A-F), the “AUG(0-∞) Mean” value was found to be 647.5 mg/L*h, the “CLz/F Mean” value was found to be 1.7 mL/min/kg and the “t1/2z Mean” value was 7.4 h. In addition, the AUC(0-t) in data set [3] (rat, plasma, po, 50 mg/kg, ig 50 mg/kg, mean of A-F, read-out: AUC(0-48) Mean) came out at 628 µg·h/mL. In addition, in data set [3] (rat, plasma, po, 50 mg/kg, ig 50 mg/kg, mean of A-F, read-out: Cmax Mean), the maximum concentration (Cmax) worked out at 161 µg/mL. Moreover, the MRT last in data set [3] (rat, plasma, po, 50 mg/kg, ig 50 mg/kg, mean of A-F, read-out: MRT(0-48) Mean) amounted to 6.6 h. Also, the Tmax in data set [3] (rat, plasma, po, 50 mg/kg, ig 50 mg/kg, mean of A-F, read-out: Tmax Mean) came to 0.6 h. In addition, the Vd/F in data set [3] (rat, plasma, po, 50 mg/kg, ig 50 mg/kg, mean of A-F, read-out: Vz/F Mean) worked out at 1 L/kg. The “pain threshold(s) 0 h” value in data set [4] stood at 15.2 ± 15.1 s.
On Cox-1, `C[C@H](C(=O)O)c1ccc2c(c1)CC(=O)c1ccccc1S2` [S, S-10,11-dihydro-alpha-methyl-10-oxo-dibenzo[b,f]tiazem-2-acetic acid] registered an IC50 of 186 µM. Also, in data set [1] (40 mg/kg ig), the “pain threshold(s) 0 h” value was determined as 12.9 ± 5.0 s, the “pain threshold(s) 0.5 h” value came to 10.8 ± 2.7 s and the “pain threshold(s) 1 h” value stood at 10.6 ± 4.6 s. Besides, in data set [1] (80 mg/kg ig), the “pain threshold(s) 0 h” value turned out to be 13.6 ± 9.6 s, the “pain threshold(s) 0.5 h” value turned out to be 12.7 ± 6.9 s and the “pain threshold(s) 1 h” value amounted to 7.9 ± 1.8 s.

(Values after patent US20110224276A1, “OPTICAL ISOMER OF PHENYLPROPIONIC ACID AND ITS MEDICINAL USE” (priority 2008, published 2011).)
